Measurements as given in ChEMBL document CHEMBL1667758, “Synthesis and biological activity of novel inhibitors of topoisomerase I: 2-aryl-substituted 2-bis-1H-benzimidazoles” (Eur J Med Chem, 2011).
Calls of active or inactive are those of the source. No cut-off for these calls is given here.

Assays:
Calf thymus DNA [1] = test: Binding affinity to calf thymus DNA assessed as hypochromicity at DNA/drug ratio 4 after 15 mins by UV-vis spectrophotometer analysis; format: nucleic-acid assay; details: Bos taurus
[2] = Lipophilicity, log P of the compound; format: physicochemical; details: octanol/water
[3] = Cytotoxicity against human U87 cells after 72 hrs by MTT assay; format: functional, cell-based, U-87MG ATCC; details: U-87 MG
Homo sapiens [4] = species on record: Homo sapiens; test: Inhibition of human purified topoisomerase 1b-mediated relaxation of supercoiled pBS (SK+) DNA at 50 uM after 30 mins by agarose gel electrophoresis
Homo sapiens [5] = species on record: Homo sapiens; test: Inhibition of human purified topoisomerase 1b-mediated relaxation of supercoiled pBS (SK+) DNA at 75 uM after 30 mins by agarose gel electrophoresis
MCF7 [6] = test: cells; details: Homo sapiens, MCF7, 72 h
Description: Cytotoxicity against human MCF7 cells after 72 hrs by MTT assay

HeLa [7] = test: cells; details: Homo sapiens, 72 h
Description: Cytotoxicity against human HeLa cells after 72 hrs by MTT assay

Calf thymus DNA [8] = test: Binding affinity to calf thymus DNA after 5 mins by fluorescence assay; format: nucleic-acid assay; details: Bos taurus
HeLa [9] = test: Ratio of compound IC50 to Hoechst 33342 IC50 for human HeLa cells; format: functional
Homo sapiens [10] = species on record: Homo sapiens; test: Inhibition of human purified topoisomerase 1b-mediated relaxation of supercoiled pBS (SK+) DNA at 10 uM after 30 mins by agarose gel electrophoresis
[11] = Ratio of compound IC50 to Hoechst 33342 IC50 for human U87 cells; format: functional, U-87MG ATCC
MCF7 [12] = test: Ratio of compound IC50 to Hoechst 33342 IC50 for human MCF7 cells; format: functional
HeLa [13] = test: Ratio of compound IC50 to camptothecin IC50 for human HeLa cells; format: functional
Homo sapiens [14] = species on record: Homo sapiens; test: Inhibition of human purified topoisomerase 1b-mediated relaxation of supercoiled pBS (SK+) DNA at 25 uM after 30 mins by agarose gel electrophoresis

Structure (SMILES) | Activity (Calf thymus DNA [1]) [%] | logP [2] | IC50 [3] [µM] | inhibition (Homo sapiens [4]) [%] | inhibition (Homo sapiens [5]) [%] | IC50 (MCF7 [6]) [µM] | IC50 (HeLa [7]) [µM] | Activity (Calf thymus DNA [8]) | Ratio IC50 (HeLa [9]) | inhibition (Homo sapiens [10]) [%] | Ratio IC50 [11] | Ratio IC50 (MCF7 [12]) | Ratio IC50 (HeLa [13]) | Activity (Homo sapiens [14])
COc1ccc(-c2nc3cc(-c4nc5cc(N6CCN(C)CC6)ccc5[nH]4)ccc3[nH]2)cc1OC | 1 | 3.48 | > 100 | 90 | 90 | 5.3 | 3.4 |  |  |  |  |  |  | 
CCOc1ccc(-c2nc3cc(-c4nc5cc(N6CCN(C)CC6)ccc5[nH]4)ccc3[nH]2)cc1 | 38 | 3.95 | 4.2 |  |  | 0.5 | 0.3 | Active | 2 |  |  |  |  | 
CC[C@@]1(O)C(=O)OCc2c1cc1n(c2=O)Cc2cc3ccccc3nc2-1 [CAMPTOTHECIN] |  |  | 0.5 |  |  | 0.65 | 1.5 |  |  | 80 |  |  |  | 
CN1CCN(c2ccc3nc(-c4ccc5nc(-c6ccc(Cl)cc6Cl)[nH]c5c4)[nH]c3c2)CC1 | 28 | 4.85 | 1.5 |  |  | 1.3 | 0.6 | Active |  |  | 2.8 | 2.6 | 3 | Active
COc1cc(-c2nc3ccc(-c4nc5ccc(N6CCN(C)CC6)cc5[nH]4)cc3[nH]2)cc(OC)c1OC | 27 | 3.36 | > 100 | 90 | 90 | 16.8 | 29.3 |  |  |  |  |  |  | 
CN1CCN(c2ccc3nc(-c4ccc5nc(-c6ccc(F)cc6F)[nH]c5c4)[nH]c3c2)CC1 | -20 | 4.05 | 5.5 |  |  | 5.5 | 1.5 | Active |  |  |  |  |  | Active
